Reference: patent US7022699B2, “Cyclohexenyl phenyl diazepines vasopressin and oxytocin receptor modulators” (Wyeth, priority 2001, dated 2006)

Assays:
[1] = target: T1, human vasopressin V1a receptor subtype (Homo sapiens, UniProt P37288); assay: Vasopressin binding in CHO cell membranes expressing human vasopressin V1a subtype receptors ([3H]Manning ligand); conditions: for inhibition at 0.1 µM / V1a % inhibition @ 100 nM: 100 nM, values without parentheses; for IC50: values in parentheses
T1 construct: host or cells: CHO cells, stably transfected (pZeoSV vector for the Thibonnier cells); membranes
Text: Vasopressin Binding in Chinese Hamster Ovary Cell Membranes Expressing Human Vasopressin V1a Subtype Receptors
Chinese hamster ovary cells (CHO cells) stably transfected with the human vasopressin V1a subtype receptors were either obtained from Biosignal Inc., 1744 rue Williams, Montreal, Quebec, Canada or obtained from M. Thibonnier, Case Western Reserve University School of Medicine, Cleveland, Ohio. A. Passaging and Amplification of Cells: CHO cells transfected with the human vasopressin V1a subtype receptors obtained from M. Thibonnier (pZeoSV vector) are allowed to grow to confluency (approx. >90%) in T-150 flasks under sterile conditions, in a cell culture medium of F-12 Nutrient Mixture (HAM) with L-glutamine (Gibco Cat. #11765-054) containing 15 mM HEPES (Gibco Cat. #15630-080), 1% antibiotic/antimycotic (add 5 mL 100×, Gibco Cat. #15240-062 per 500 mL F-12), 250 μg/mL Zeocin (add 1.25 mL of 100 mg/mL Invitrogen R-250-01 per 500 mL F-12) and 10% Fetal Bovine Serum (Qualified, heat inactivated, Gibco Cat. #16140-063). The medium is removed by aspiration and the cells are washed with 10 mL of Hank's Balanced Salt solution (Gibco Cat. #14175-095). The salt solution is removed by aspiration and the cells are trypsinized with 5 mL of trypsin-EDTA (0.05% trypsin, 0.53 mM EDTA-4Na, Gibco Cat. #25300-070) for 1 min. The trypsin is removed by aspiration and the cells dislodged by tapping. Cell Culture medium (eg, 30 mL for 1:30 split) is immediately added and mixed well to inactivate trypsin. 1 mL of detached cells is added to new culture flasks containing fresh cell culture medium (eg, into 25 mL per T-150 flask), and mixed gently. The cells are incubated at 37° C. in 5% CO2. The medium is changed at 3 to 4 days interval (or as appropriate). The cells grow to confluency (approx. >75%–95%) within 7–8 days. All steps are done under sterile conditions. B. Membrane Preparation: The cells are washed twice gently with Hank's Balanced Salt solution (e.g.,. use 10 mL per T-150 flask). The excess is removed and the cells are bathed for 15–30 min. in an enzyme-free Cell Dissociation Buffer (e.g. use 8 mL Hank's Based, Gibco Cat. #13150-016 per T-150 flask) until the cells are loosened. The contents are transferred to centrifuge tubes (50 mL size) kept in ice bath. All subsequent steps are done at 4° C. The tubes are centrifuged at 300×g for 15 min (1380 rpm on SORVAL, Model RT6000D, using rotor for 50 mL tubes). The supernatant is discarded and the cells suspended in homogeneizing buffer (10 mM Tris-HCl containing 0.25 M sucrose and 1 mM EDTA, pH 7.4) ensuring that the volume of the buffer is about ten times the volume of the cell pellet. The cells are pooled into a centrifuge tube (50 mL) and homogenized with Polytron at setting 6 for 10 sec. The homogenate is transferred into a Potter-Elvjehm homogenizer and homogenized with 3 strokes. The homogenate is centrifuged at 1500×g for 10 min at 4° C. (3100 rpm using SORVAL, model RT6000D, using rotor for 50 mL tubes). The pellet is discarded. The supernatant is centrifuged at 100,000×g for 60 min. at 4° C. (Beckman L8-80M ultracentrifuge; spin at 37,500 rpm with rotor type 70 Ti for 50 mL tubes; 38,000 rpm with type 80Ti for 15 mL tubes; or 35,800 rpm with rotor type 45Ti). The supernantant is discarded and the pellet suspended in 3 to 4 mL of Tris buffer (50 mM TRIS-HCl, pH 7.4). The protein content is estimated by the Bradford or Lowry method. The volume of the membrane suspension is adjusted with the membrane buffer (50 mM Tris-HCl containing 0.1% BSA and 0.1 mM PMSF) to give 3.0 mg/mL (or as appropriate) of protein. The membranes are aliquoted and stored at −70° C. C. […]

T1 sequence (P37288 whole entry): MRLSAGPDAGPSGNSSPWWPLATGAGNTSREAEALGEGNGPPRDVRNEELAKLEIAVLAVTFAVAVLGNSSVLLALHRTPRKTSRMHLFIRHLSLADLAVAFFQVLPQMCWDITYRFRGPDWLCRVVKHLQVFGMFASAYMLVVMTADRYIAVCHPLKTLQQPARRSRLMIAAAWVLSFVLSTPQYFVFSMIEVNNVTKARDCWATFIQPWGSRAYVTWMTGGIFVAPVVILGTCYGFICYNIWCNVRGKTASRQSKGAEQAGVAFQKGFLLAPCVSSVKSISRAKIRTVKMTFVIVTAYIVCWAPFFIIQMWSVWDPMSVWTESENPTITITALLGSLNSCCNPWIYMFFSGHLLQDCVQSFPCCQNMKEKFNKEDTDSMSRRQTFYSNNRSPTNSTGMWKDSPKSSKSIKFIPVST

Row | Structure (SMILES) | melting point | inhibition at 0.1 µM [1] | further results
1 | O=C(c1ccc(C2=CCCc3ccccc32)cc1Cl)N1Cc2cccn2Cc2ccccc21 [Example 11, (10,11-Dihydro-5H-pyrrolo[2,1-c][1,4]benzodiazepin-10-yl)-[2-chloro-4-(3,4-dihydro-naphthalen-1-yl)-phenyl]-methanone] | 174 to 176 °C | 6% | 
2 | O=C(c1ccc(C2=CCC3CCC2C3)cc1)N1Cc2cccn2Cc2ccccc21 (centres unmarked) [Example 21] |  |  | V1a % inhibition @ 100 nM [1]: 37%
3 | CC1CCCC=C1c1ccc(C(=O)N2Cc3cccn3Cc3ccccc32)cc1 (centres unmarked) [Example 16, (10,11-Dihydro-5H-pyrrolo[2,1-c][1,4]benzodiazepin-10-yl)-[4-(6-methyl-cyclohex-1-en-1-yl)-phenyl]-methanone] | 108 to 109 °C |  | IC50 [1]: 77.8 nM
4 | O=C(c1ccc(C2=CCCc3ccccc32)cc1)N1Cc2cccn2Cc2ccccc21 [Example 18, (10,11-Dihydro-5H-pyrrolo[2,1-c][1,4]benzodiazepin-10-yl)-[4-(3,4-dihydro-naphthalen-1-yl)-phenyl]-methanone] | 166 °C | 51% | 
5 | CC1=C(c2ccc(C(=O)N3Cc4cccn4Cc4ccccc43)cc2C)CCCC1=O [Example 4, 3-[2-Methyl-4-(5H-pyrrolo[2,1-c][1,4]benzodiazepin-10(11H)-yl-carbonyl)phenyl]-2-methyl-cyclohex-2-en-1-one] |  | 7% | 
6 | COc1cc(C2=CCCc3ccccc32)c(Cl)cc1C(=O)N1Cc2cccn2Cc2ccccc21 [Example 8, 10-[5-Chloro-4-(3,4-dihydro-naphthalen-1-yl)-2-methoxybenzoyl]-10,11-dihydro-5H-pyrrolo[2,1-c][1,4]benzodiazepine] | 209 to 210 °C | -9% | 
7 | CC1(C)CCCC=C1c1ccc(C(=O)N2Cc3cccn3Cc3ccccc32)c(Cl)c1 [Example 12, (10,11-Dihydro-5H-pyrrolo[2,1-c][1,4]benzodiazepin-10-yl)-[2-chloro-4-(6,6-dimethyl-cyclohex-1-en-1-yl)-phenyl]-methanone] |  | 54% | 
8 | O=C(c1ccc(C2=CCCCC2)cc1)N1Cc2cccn2Cc2ccccc21 [Example 15, (10,11-Dihydro-5H-pyrrolo[2,1-c][1,4]benzodiazepin-10-yl)-(4-cyclohex-1-en-1-yl-phenyl)-methanone] | 156 °C |  | IC50 [1]: 35.3 nM
9 | CC1=C(c2ccc(C(=O)N3Cc4cccn4Cc4ccccc43)cc2C)CCC[C@H]1O [Example 6, (10,11-Dihydro-5H-pyrrolo[2,1-c][1,4]benzodiazepin-10-yl)-[4-((3R)-3-hydroxy-2-methyl-cyclohex-1-en-1-yl)-3-methyl-phenyl]-methanone] |  | 45% | 
10 | CC1=C(c2ccc(C(=O)N3Cc4cccn4Cc4ccccc43)c(Cl)c2)CCCC1O (centres unmarked) [Example 14, (10,11-Dihydro-5H-pyrrolo[2,1-c][1,4]benzodiazepin-10-yl)-[2-chloro-4-(3-hydroxy-2-methyl-cyclohex-1-en-1-yl)-phenyl]-methanone] |  | 10% | 
11 | O=C(c1ccc(C2=CCCCC2)cc1Cl)N1Cc2cccn2Cc2ccccc21 [Example 10, (10,11-dihydro-5H-pyrrolo[2,1-c][1,4]benzodiazepin-10-yl)-[2-chloro-4-(cyclohex-1-en1-yl)-phenyl]-methanone] |  | 94% | 
12 | COc1cc(C2=C(C)C(=O)CCC2)c(Cl)cc1C(=O)N1Cc2cccn2Cc2ccccc21 [Example 9, 3-[2-Chloro-5-methoxy-4-(5H-pyrrolo[2,1-c][1,4]benzodiazepin-10(11H)-yl-carbonyl)phenyl]-2-methyl-cyclohex-2-en-1-one] |  | 17% | 
13 | CC(C)(C)C1CCCC=C1c1ccc(C(=O)N2Cc3cccn3Cc3ccccc32)cc1 (centres unmarked) [Example 20, (10,11-5H-Dihydro-pyrrolo[2,1-c][1,4]benzodiazepin-10-yl)-[4-(6-tert-butyl-cyclohex-1-en-1-yl)-phenyl]-methanone] |  |  | V1a % inhibition @ 100 nM [1]: 4%
14 | CC1=C(c2ccc(C(=O)N3Cc4cccn4Cc4ccccc43)c(Cl)c2)CCCC1=O [Example 13, (10,11-Dihydro-5H-pyrrolo[2,1-c][1,4]benzodiazepin-10-yl)-[2-chloro-4-(2-methyl-3-oxo-cyclohex-1-en-1-yl)-phenyl]-methanone] |  | 95% | 
15 | CC1=C(c2ccc(C(=O)N3Cc4cccn4Cc4ccccc43)cc2C)CCCC1O (racemic) [Example 5, (10,11-Dihydro-5H-pyrrolo[2,1-c][1,4]benzodiazepin-10-yl)-[4-(3-hydroxy-2-methyl-cyclohex-1-en-1-yl)-3-methyl-phenyl]-methanone] |  | 0% | 

Further lines, with some results ahead:

Row | melting point | inhibition at 0.1 µM [1] | Structure (SMILES) | further results
16 |  | 89% | CC1=C(c2ccc(C(=O)N3Cc4cccn4Cc4ccccc43)cc2)CCCC1O (centres unmarked) [Example 27, (10,11-Dihydro-5H-pyrrolo[2,1-c][1,4]benzodiazepin-10-yl)-[4-(3-hydroxy-2-methyl-cyclohex-1-en-1-yl)-phenyl]-methanone] | 
17 | 205 to 207 °C | 49% | O=C1C=C(c2ccc(C(=O)N3Cc4cccn4Cc4ccccc43)cc2)CCC1 [Example 24, 3-[4-(10,11-Dihydro-5H-pyrrolo[2,1-c][1,4]benzodiazepine-10-carbonyl)-phenyl]-cyclohex-2-en-1-one] | 
18 | 127 to 129 °C | -5% | Cc1cc(C(=O)N2Cc3cccn3Cc3ccccc32)ccc1C1=CCCCC1C(C)(C)C (centres unmarked) [Example 34, (10,11-Dihydro-5H-pyrrolo[2,1-c][1,4]benzodiazepin-10-yl)-[4-(6-tert-butyl-cyclohex-1-en-1-yl)-3-methyl-phenyl]-methanone] | 
19 |  | 36% | CC1=C(c2ccc(C(=O)N3Cc4cccn4Cc4ccccc43)cc2C)CCC[C@H]1O (single isomer, unassigned) [Example 41] | 
20 | 91 to 94 °C | 5% | COc1cccc(C2=C(c3ccc(C(=O)N4Cc5cccn5Cc5ccccc54)cc3C)CCCC2)c1 [Example 38, (10,11-Dihydro-5H-pyrrolo[2,1-c][1,4]benzodiazepin-10-yl)-{4-[2-(3-methoxy-phenyl)-cyclohex-1-en-1-yl]-3-methyl-phenyl}-methanone] | 
21 |  | 76% | O=C(c1ccc(C2=CC(O)CCC2)cc1)N1Cc2cccn2Cc2ccccc21 (centres unmarked) [Example 25, (10,11-Dihydro-5H-pyrrolo[2,1-c][1,4]benzodiazepin-10-yl)-[4-(3-hydroxy-cyclohex-1-en-1-yl)-phenyl]-methanone] | 
22 |  | 50% | CC1=C(c2ccc(C(=O)N3Cc4cccn4Cc4ccccc43)cc2C)CCCC1N (centres unmarked) [Example 45, [4-(3-Amino-2-methyl-cyclohex-1-en-1-yl)-3-methyl-phenyl]-(10,11-dihydro-5H-pyrrolo[2,1-c][1,4]benzodiazepin-10-yl)-methanone] | 
23 |  | 91% | Cc1cc(C(=O)N2Cc3cccn3Cc3ccccc32)ccc1C1=CC(O)CCC1 (centres unmarked) [Example 40, (10,11-Dihydro-5H-pyrrolo[2,1-c][1,4]benzodiazepin-10-yl)-[4-(3-hydroxy-cyclohex-1-en-1-yl)-3-methyl-phenyl]-methanone] | 
24 |  | 93% | CC1=C(c2ccc(C(=O)N3Cc4cccn4Cc4ccccc43)cc2C)CCC[C@@H]1O (single isomer, unassigned) [Example 43] | 
